In US12509444B2, “Compounds and methods for CD73 modulation and indications therefor” (Plexxikon Inc., priority 2019, dated 2025):
pIC50: −log10 of the molar value.

Columns and labels:
human CD73 = biological target: T1, human CD73 (Homo sapiens, UniProt P21589); experiment: Inhibitor activity against CD73 in cell based assay (CD73 expressing CHO-K1 cells); conditions: CHO-K1 cells expressing human CD73, 150 μM AMP, 4 hours of incubation; read-out: CHO-K1 CELL VARIANT: CD73 IC50
T1 construct: expressed in transfected cells
T1 sequence (P21589 27-549): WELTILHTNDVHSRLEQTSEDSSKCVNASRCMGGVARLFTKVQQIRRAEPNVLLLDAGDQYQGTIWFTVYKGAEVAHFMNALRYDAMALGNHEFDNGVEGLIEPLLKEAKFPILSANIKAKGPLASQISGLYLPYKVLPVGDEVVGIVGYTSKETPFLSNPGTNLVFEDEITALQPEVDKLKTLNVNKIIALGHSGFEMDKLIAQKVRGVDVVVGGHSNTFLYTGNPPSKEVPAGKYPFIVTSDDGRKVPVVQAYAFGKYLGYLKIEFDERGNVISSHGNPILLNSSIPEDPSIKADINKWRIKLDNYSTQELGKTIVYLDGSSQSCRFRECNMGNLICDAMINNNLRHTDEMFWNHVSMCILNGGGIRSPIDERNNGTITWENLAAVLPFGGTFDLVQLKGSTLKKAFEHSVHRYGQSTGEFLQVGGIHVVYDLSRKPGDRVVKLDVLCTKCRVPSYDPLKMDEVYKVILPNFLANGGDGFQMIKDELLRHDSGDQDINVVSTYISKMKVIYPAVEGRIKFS
Description: Determine Inhibitor Activity Against CD73 in Cell Based Assay
CD73 expressing CHO-K1 cell clones were generated upon stable transfection of a plasmid expressing human CD73 under the control of CMV promoter. Cells were selected in Ham's F-12K (Kaighn's) media supplemented with 10% fetal bovine serum and 1 mg/ml G418 at 37° C. in a humidified incubator supplied with 5% CO2. The assays were performed as follows. Cells were seeded in a 96 well plate in 50 μL of culture media at a density of 1×10^4 per well. Compound at a maximal concentration of 5 mM was serially diluted 1:3 in DMSO for a total of 8 point titration. A 2 μL aliquot of each dilution point was added to 248 μL culture media and 25 µL was added to each well, providing 10 μM compound at the maximum concentration point. AMP was diluted in culture media and 25 μL was added to each well with a final concentration of 150 μM. 4 wells containing 0.2% DMSO treated cells and AMP served as high controls and 4 wells containing media only with 0.2% DMSO and AMP served as low controls. After 4 hours of incubation, 20 μL of the supernatant was transferred to a 384 well plate. AMP level in supernatant was measured indirectly by adding 5 μL of CellTiter-Glo® 2.0 reagent and 5 μL of ATP with a final concentration of 1 μM. Following incubation of plate at room temperature for 30 minutes, luminescent signal was read on a Tecan plate reader. The percentage inhibition at individual concentrations relative to high and low controls was calculated. The data were analyzed by using nonlinear regression to generate IC50 values.

[1] = biological target: T2, Human CD73 (amino acid residues 27-549) (Homo sapiens, UniProt P21589); experiment: CD73 enzymatic assay (luciferase-based indirect assay, CellTiter-Glo); format: biochemical; conditions: 0.4 nM CD73, 150 μM AMP, 1 hour at room temperature
T2 construct: Human CD73 (amino acid residues 27-549); His tag (N); made in house; host or cells: E. coli
T2 sequence (P21589 27-549): T1 sequence (P21589 27-549)
Description: CD73 enzymatic activity was measured in a luciferase-based indirect assay using CellTiter-Glo® system from Promega. The luciferase reaction in the presence of ATP is inhibited by AMP, a primary substrate of CD73. Addition of CD73 enzyme to the reaction converts AMP to adenosine, and release the inhibition, producing a luminescent signal. Inhibition of CD73 leads to the decrease of this luminescent signal.
Human CD73 (amino acid residues 27-549) with N-Terminal His tag was purified in E. coli. All the assay components were prepared in 50 mM HEPEs buffer (pH 7.4) with 0.01% Tween® 20. The CD73 enzymatic assay was performed using 0.4 nM CD73 and 150 μM AMP. 9.5 μL of CD73 protein and 9.5 μL of AMP were added to the wells of a 384 well plate containing 1 μL of various concentrations of test compound or DMSO vehicle and incubated for 1 hour at room temperature. 16 wells containing CD73, AMP and 5% DMSO served as high control. 16 wells containing AMP and 5% DMSO served as low control. Enzymatic reaction was stopped and AMP level was measured indirectly by adding 5 μL of CellTiter-Glo® 2.0 reagent and 5 μL of ATP with a final concentration of 1 μM. Following incubation of the plate at room temperature for 30 minutes, luminescent signal was read on a Tecan plate reader. The percentage inhibition at individual concentrations relative to high and low controls was calculated. The data were analyzed by using nonlinear regression to generate IC50 values.

Row | Compound | pIC50 (human CD73) | pIC50 [1]
1 | N#Cc1c(N2CC[C@@H](OC(=O)NC3CCCC3)C2)cn[nH]c1=O [P-0395, (R)-1-(5-cyano-6-oxo-1,6-dihydropyridazin-4-yl)pyrrolidin-3-yl cyclopentylcarbamate] | 5.00 to 9.00 | 5.00 to 9.00
2 | O=C(N[C@@H]1CCC[C@H]1C(=O)O)O[C@@H]1CCN(c2cn[nH]c(=O)c2Cl)C1 [P-0469, (1R,2R)-2-(((((R)-1-(5-chloro-6-oxo-1,6-dihydropyridazin-4-yl)pyrrolidin-3-yl)oxy)carbonyl)amino) cyclopentane-1-carboxylic acid] | 5.00 to 9.00 | 5.00 to 9.00
3 | O=C(N[C@H]1CC[C@@H](NC(=O)c2ccc(F)cc2)CC1)O[C@@H]1CCN(c2cn[nH]c(=O)c2Cl)C1 [P-0195, (R)-1-(5-chloro-6-oxo-1,6-dihydropyridazin-4-yl)pyrrolidin-3-yl ((1s,4S)-4-(4-fluorobenzamido)cyclohexyl) carbamate] | 5.00 to 9.00 | 5.00 to 9.00
4 | COCCn1ncc(N2CC[C@@H](OC(=O)NC3CCC(F)(F)CC3)C2)c(Cl)c1=O [P-0245, (R)-1-(5-chloro-1-(2-methoxyethyl)-6-oxo-1,6-dihydropyridazin-4-yl)pyrrolidin-3-yl (4,4-difluorocyclohexyl)carbamate] | 4.00 to 5.00 | 5.00 to 9.00
5 | CC(=O)N1CC[C@H](NC(=O)O[C@@H]2CCN(c3cn[nH]c(=O)c3Cl)C2)C1 [P-0340, (R)-1-(5-chloro-6-oxo-1,6-dihydropyridazin-4-yl)pyrrolidin-3-yl ((S)-1-acetylpyrrolidin-3-yl)carbamate] | 5.00 to 9.00 | 5.00 to 9.00
6 | CC(C)(C)OC(=O)N1CCC(NC(=O)N[C@@H]2CCN(c3cn[nH]c(=O)c3Cl)C2)CC1 [P-0051, tert-butyl (R)-4-(3-(1-(5-chloro-6-oxo-1,6-dihydropyridazin-4-yl)pyrrolidin-3-yl)ureido)piperidine-1-carboxylate] | 4.00 to 5.00 | 5.00 to 9.00
7 | O=C(N[C@H]1CC[C@H](NS(=O)(=O)c2cccnc2)CC1)O[C@@H]1CCN(c2cn[nH]c(=O)c2Cl)C1 [P-0295, (R)-1-(5-chloro-6-oxo-1,6-dihydropyridazin-4-yl)pyrrolidin-3-yl ((1r,4R)-4-(pyridine-3-sulfonamido)cyclohexyl) carbamate] | 5.00 to 9.00 | 5.00 to 9.00
8 | O=C(NC1(C2CC2)CC1)O[C@@H]1CCN(c2cn[nH]c(=O)c2Cl)C1 [P-0118, (R)-1-(5-chloro-6-oxo-1,6-dihydropyridazin-4-yl)pyrrolidin-3-yl [1,1′-bi(cyclopropan)]-1-ylcarbamate] | 5.00 to 9.00 | 5.00 to 9.00
9 | O=C(N[C@H]1CC[C@H](O)C1)O[C@@H]1CCN(c2cn[nH]c(=O)c2Cl)C1 [P-0458, (R)-1-(5-chloro-6-oxo-1,6-dihydropyridazin-4-yl)pyrrolidin-3-yl ((1S,3S)-3-hydroxycyclopentyl)carbamate] | 5.00 to 9.00 | 5.00 to 9.00
10 | O=C(N[C@@H]1CCN(c2cn[nH]c(=O)c2Cl)C1)OC1CCCCC1 [P-0015, cyclohexyl (R)-(1-(5-chloro-6-oxo-1,6-dihydropyridazin-4-yl)pyrrolidin-3-yl)carbamate] | 4.00 to 5.00 | 5.00 to 9.00
11 | NCCn1ncc(N2CC[C@@H](OC(=O)NC3CCCC3)C2)c(Cl)c1=O [P-0415, (R)-1-(1-(2-aminoethyl)-5-chloro-6-oxo-1,6-dihydropyridazin-4-yl)pyrrolidin-3-yl cyclopentylcarbamate] | 5.00 to 9.00 | 5.00 to 9.00
12 | Cn1ncc(N2CC[C@@H](OC(=O)N[C@H]3CC[C@H](NS(=O)(=O)NC4CCCC4)CC3)C2)c(Cl)c1=O [P-0218, (R)-1-(5-chloro-1-methyl-6-oxo-1,6-dihydropyridazin-4-yl)pyrrolidin-3-yl ((1r,4R)-4-((N-cyclopentylsulfamoyl)amino)cyclohexyl)carbamate] | 5.00 to 9.00 | 5.00 to 9.00
13 | CC1(C)CCCC1NC(=O)O[C@@H]1CCN(c2cn[nH]c(=O)c2Cl)C1 (stereo partly drawn) [P-0350, (R)-1-(5-chloro-6-oxo-1,6-dihydropyridazin-4-yl)pyrrolidin-3-yl (2,2-dimethylcyclopentyl)carbamate] | 5.00 to 9.00 | 5.00 to 9.00
14 | CC(C)(O)[C@H]1CC[C@H](NC(=O)O[C@@H]2CCN(c3cn[nH]c(=O)c3Cl)C2)CC1 [P-0356, (R)-1-(5-chloro-6-oxo-1,6-dihydropyridazin-4-yl)pyrrolidin-3-yl ((1r,4R)-4-(2-hydroxypropan-2-yl)cyclohexyl)carbamate] | 5.00 to 9.00 | 5.00 to 9.00
15 | O=C(NC1C2CC3CC(C2)CC1C3)O[C@@H]1CCN(c2cn[nH]c(=O)c2Cl)C1 (stereo partly drawn) [P-0111, (R)-1-(5-chloro-6-oxo-1,6-dihydropyridazin-4-yl)pyrrolidin-3-yl adamantan-2-ylcarbamate] | 5.00 to 9.00 | 5.00 to 9.00
16 | O=C(NC1CCCC(F)(F)C1)O[C@@H]1CCN(c2cn[nH]c(=O)c2Cl)C1 (stereo partly drawn) [P-0424, (R)-1-(5-chloro-6-oxo-1,6-dihydropyridazin-4-yl)pyrrolidin-3-yl (3,3-difluorocyclohexyl)carbamate] | 5.00 to 9.00 | 5.00 to 9.00
17 | O=C(N[C@@H]1CCCC(F)(F)C1)O[C@@H]1CCN(c2cn[nH]c(=O)c2Cl)C1 [P-0512, (R)-1-(5-chloro-6-oxo-1,6-dihydropyridazin-4-yl)pyrrolidin-3-yl ((R)-3,3-difluorocyclohexyl)carbamate] | 5.00 to 9.00 | 5.00 to 9.00
18 | O=C(Nc1ccc(C(F)(F)F)cc1)N[C@H]1CC[C@H](NC(=O)O[C@@H]2CCN(c3cn[nH]c(=O)c3Cl)C2)CC1 [P-0345, (R)-1-(5-chloro-6-oxo-1,6-dihydropyridazin-4-yl)pyrrolidin-3-yl ((1r,4R)-4-(3-(4-(trifluoromethyl)phenyl)ureido)cyclohexyl)carbamate] | 5.00 to 9.00 | 5.00 to 9.00
19 | Cc1noc(C)c1S(=O)(=O)N[C@H]1CC[C@H](NC(=O)O[C@@H]2CCN(c3cn[nH]c(=O)c3Cl)C2)CC1 [P-0302, (R)-1-(5-chloro-6-oxo-1,6-dihydropyridazin-4-yl)pyrrolidin-3-yl ((1r,4R)-4-((3,5-dimethylisoxazole)-4-sulfonamido)cyclohexyl) carbamate] | 5.00 to 9.00 | 5.00 to 9.00
20 | Cn1ncc(N2CC[C@@H](OC(=O)N[C@H]3CC[C@H](NS(=O)(=O)c4ccc(F)cc4F)CC3)C2)c(Cl)c1=O [P-0289, (R)-1-(5-chloro-1-methyl-6-oxo-1,6-dihydropyridazin-4-yl)pyrrolidin-3-yl ((1r,4R)-4-((2,4-difluorophenyl)sulfonamido)cyclohexyl)carbamate] | 5.00 to 9.00 | 5.00 to 9.00
21 | O=C(NC1CCN(C(=O)C2CCCC2)CC1)O[C@@H]1CCN(c2cn[nH]c(=O)c2Cl)C1 [P-0377, (R)-1-(5-chloro-6-oxo-1,6-dihydropyridazin-4-yl)pyrrolidin-3-yl (1-(cyclopentanecarbonyl)piperidin-4-yl)carbamate] | 5.00 to 9.00 | 5.00 to 9.00
